Molecular target: ROCK2 (human) (UniProt O75116)
Experiment: Assessment of ROCK2 Kinase Activity by Luciferase Assay

Sequence of ROCK2 (human) (O75116 whole entry, looked up): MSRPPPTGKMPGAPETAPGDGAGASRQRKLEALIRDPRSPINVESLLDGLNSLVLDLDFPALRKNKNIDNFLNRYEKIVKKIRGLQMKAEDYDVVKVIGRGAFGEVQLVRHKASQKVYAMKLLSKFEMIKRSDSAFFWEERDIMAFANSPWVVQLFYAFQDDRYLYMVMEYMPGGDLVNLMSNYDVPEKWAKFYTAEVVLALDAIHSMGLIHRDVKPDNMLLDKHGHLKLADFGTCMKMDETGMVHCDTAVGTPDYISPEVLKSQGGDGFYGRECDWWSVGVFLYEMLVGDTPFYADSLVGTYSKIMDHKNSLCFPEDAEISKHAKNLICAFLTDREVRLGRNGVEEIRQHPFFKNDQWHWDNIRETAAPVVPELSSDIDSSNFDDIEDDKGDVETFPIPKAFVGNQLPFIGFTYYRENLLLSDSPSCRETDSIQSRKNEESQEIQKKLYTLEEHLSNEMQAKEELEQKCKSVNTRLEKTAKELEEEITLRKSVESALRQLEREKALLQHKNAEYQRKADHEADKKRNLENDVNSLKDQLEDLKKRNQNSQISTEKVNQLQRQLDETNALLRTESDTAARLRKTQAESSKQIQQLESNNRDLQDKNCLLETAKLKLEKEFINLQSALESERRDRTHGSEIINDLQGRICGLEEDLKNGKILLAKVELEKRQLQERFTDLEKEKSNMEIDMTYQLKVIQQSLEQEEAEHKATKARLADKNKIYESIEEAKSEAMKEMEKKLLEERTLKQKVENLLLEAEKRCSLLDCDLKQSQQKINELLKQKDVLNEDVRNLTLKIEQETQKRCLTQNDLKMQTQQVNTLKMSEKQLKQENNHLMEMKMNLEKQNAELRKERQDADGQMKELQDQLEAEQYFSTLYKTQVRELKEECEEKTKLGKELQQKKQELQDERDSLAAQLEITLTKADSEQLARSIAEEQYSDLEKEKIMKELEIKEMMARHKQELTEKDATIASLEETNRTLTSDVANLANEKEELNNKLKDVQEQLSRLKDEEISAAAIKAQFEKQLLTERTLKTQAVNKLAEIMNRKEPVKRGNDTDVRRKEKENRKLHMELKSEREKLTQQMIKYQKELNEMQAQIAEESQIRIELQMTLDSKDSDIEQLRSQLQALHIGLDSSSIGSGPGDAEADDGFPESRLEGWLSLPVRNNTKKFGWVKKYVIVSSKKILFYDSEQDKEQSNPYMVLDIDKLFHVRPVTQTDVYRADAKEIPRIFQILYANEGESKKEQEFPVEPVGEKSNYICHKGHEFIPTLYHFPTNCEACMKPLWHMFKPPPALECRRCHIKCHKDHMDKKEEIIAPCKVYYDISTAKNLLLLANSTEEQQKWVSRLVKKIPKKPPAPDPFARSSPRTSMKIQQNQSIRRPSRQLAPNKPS

Row | SMILES | IC50 | Kd
1 | COc1ccc(NC(=O)Cc2cccc(NC(=O)CCC3CCCNC3)c2)cc1OC (stereo unspecified) | 0.037 µM | 
2 | CN(C)Cc1ccc(NC(=O)c2cccc(CNC(=O)c3ccc(C#N)cc3)c2)cc1 | 1.7 µM | 
3 | CN(C)Cc1ccc(NC(=O)c2cccc(CNC(=O)Nc3ccc(C(N)=O)cc3)c2)cc1 | 0.008 µM | 
4 | COc1ccc(NC(=O)NCc2cccc(C(=O)NCCC3CCCNC3)c2)cc1OC (stereo unspecified) | 1.6 µM | 
5 | COc1ccc(C(=O)NCc2cccc(C(=O)NCCC3CCCN(C)C3)c2)cc1OC (stereo unspecified) | 0.102 µM | 
6 | N#Cc1ccc(NC(=O)NCc2cccc(C(=O)Nc3ccc(CN)cc3)c2)cc1 | 0.07 µM | 
7 | COc1ccc(C(=O)NCc2cccc(C(=O)Nc3ccc(CN(C)C)cc3)c2)cc1C | 0.266 µM | 
8 | COc1ccc(CC(=O)Nc2cccc(C(=O)NCCC3CCCNC3)c2)cc1OC (stereo unspecified) | 3.2 µM | 
9 | COc1ccc(C(=O)NCc2cccc(C(=O)Nc3ccc4c(c3)CNCC4)c2)cc1OC |  | 0.007 µM
10 | COc1ccc(C(=O)NCc2cccc(C(=O)NCC3CCCO3)c2)cc1OC (stereo unspecified) | 1200 µM | 
11 | N#Cc1ccc(NC(=O)NCc2cccc(C(=O)NCCC3CCNCC3)c2)cc1 | 0.065 µM | 
12 | COc1ccc(C(=O)NCc2cccc(C(=O)NCCC3CCCNC3)c2)cc1OC (stereo unspecified) |  | 0.018 µM
13 | N#Cc1ccc(NC(=O)NCc2cccc(NC(=O)CCC3CCCNC3)c2)cc1 (stereo unspecified) | 0.11 µM | 
14 | COc1ccc(C(=O)NCc2cccc(C(=O)Nc3ccc(CN(C)C)cc3)c2)cc1C(F)(F)F | 0.16 µM | 
15 | CN(C)Cc1ccc(NC(=O)c2cccc(CNC(=O)Nc3ccc(C(N)=O)c(Cl)c3)c2)cc1 | 0.074 µM | 
16 | COc1ccc(C(=O)NCc2cccc(C(=O)Nc3ccc4cnccc4c3)c2)cc1OC | 0.685 µM | 
17 | COc1ccc(C(=O)NCc2cccc(C(=O)Nc3ccc(CN(C)C)cc3)c2)cc1 | 1.3 µM | 
18 | COc1ccc(C(=O)NCc2cccc(C(=O)Nc3ccc4c(c3)CCNC4)c2)cc1OC | 0.1 µM | 
19 | CN(C)Cc1ccc(NC(=O)c2cccc(CNC(=O)Nc3ccc(C#N)c(Cl)c3)c2)cc1 | 0.01 µM | 
20 | CN(C)Cc1ccc(NC(=O)c2cccc(CNC(=O)Nc3cccc(C(N)=O)c3)c2)cc1 | 0.24 µM | 
21 | CN(C)Cc1ccc(NC(=O)c2cccc(CNC(=O)c3ccc(OC(F)(F)F)c(Cl)c3)c2)cc1 | 0.67 µM | 

Source: the Kinase Knowledgebase extract (Sharma et al. 2016)
